In patent publication US5491135A (priority 1993, dated 1996):
≈ marks a conversion by molar mass, not a printed value. Where “and” joins values, the source holds several entries; their conditions need not be identical. Equal entries are not always repeated.

Experiments:
HCMV strain AD 169 = test: Rabbit HCMV efficacy and time course recovery (Example 6)
CMV = test: In vitro antiviral assay; type: cell-based
Paramyxo-3 = test: In vitro antiviral assay; type: cell-based
HIV-1 = test: In vitro antiviral MTT CPE assay; type: cell-based
RNA and DNA viruses = type: cell-based; details: most viruses of Table 3
herpes virus-2 = test: In vitro antiviral assay; type: cell-based
[1] = test system: duck hepatitis B virus (DHBV); test: Duck hepatitis B (DHBV) in primary duck hepatocyte culture; type: cell-based
Method: Using the duck hepatitis model (DHBV), primary duck hepatocyte cells were treated with various concentrations of PALA (disodium salt) and evaluated for cytopathic effect. In addition, viral DNA replication was assessed using "slot" dot blots. […] These experiments were performed three times with confirmatory results.

Sandfly fever virus = details: Vero
[2] = test system: Japanese encephalitis virus; details: Vero; 50% inhibition
[3] = test system: Venezuelan equine encephalitis virus; details: Vero; 50% inhibition
[4] = used alone; cited from earlier work
humoral immune response = details: tumor bearing animals; cited from earlier work
Punta toro virus = test: microbe, parasite or virus in culture; details: Vero
Yellow fever virus = test: microbe, parasite or virus in culture; details: Vero
[5] = PALA 50, DHPG 10 or both, mg/kg/day i.v.
[6] = day 3, DHPG 10 or PALA 50 + DHPG 10 mg/kg/d, sum of both eyes
[7] = day 3, PALA 50, DHPG 10 or both, mg/kg/d
[8] = day 3, sham-inoculated S1-S5, dose as groups 1-5
[9] = day 4, DHPG 10 or PALA 50 + DHPG 10 mg/kg/d, sum of both eyes
[10] = day 4, PALA 50, DHPG 10 or both, mg/kg/d
[11] = day 4, sham-inoculated S1-S5, dose as groups 1-5
[12] = day 5, DHPG 10 or PALA 50 + DHPG 10 mg/kg/d, sum of both eyes
[13] = day 5, PALA 50, DHPG 10 or both, mg/kg/d
[14] = day 5, sham-inoculated S1-S5, dose as groups 1-5
[15] = day 6, PALA 50, DHPG 10 or both, mg/kg/d
[16] = day 6, PALA 50 or DHPG 10 mg/kg/d
[17] = day 6, sham-inoculated S1-S5, dose as groups 1-5
[18] = day 7, DHPG 10 or PALA 50 + DHPG 10 mg/kg/d, sum of both eyes
[19] = day 7, sham-inoculated S1-S5, dose as groups 1-5
[20] = day 10, DHPG 10 or PALA 50 + DHPG 10 mg/kg/d, sum of both eyes
[21] = day 10, sham-inoculated S1-S5, dose as groups 1-5

Structure (SMILES): Nc1nc(O)c2ncn(COC(CO)CO)c2n1 [DHPG, reference compound]
- HCMV recovery (HCMV strain AD 169; [5]): better than the mid-dose and low-dose combination therapy group and the single agent PALA group and the placebo therapy group
- clinical disease (HCMV strain AD 169; [5]): did reduce the development of HCMV chorioretinal infection and disease and vitreitis
- Optic neuritis score (ONH) (HCMV strain AD 169; day 3, DHPG 10 or PALA 50 + DHPG 10 mg/kg/d): 2
- Chorioretinal score (C) (HCMV strain AD 169; [6]): 0
- Vitreitis score (V) (HCMV strain AD 169; [6]): 3 and 2
- HCMV Recovered, OD (HCMV strain AD 169; [7]): +
- HCMV Recovered, OS (HCMV strain AD 169; [7]): +
- HCMV Titer, OD (HCMV strain AD 169; [7]): 10^3 pfu
- HCMV Titer, OS (HCMV strain AD 169; [7]): 10^3 pfu
- HCMV recovery frequency (HCMV strain AD 169; [7]): 2/2
- Chorioretinal score (C) (HCMV strain AD 169; [8]): 0
- Vitreitis score (V) (HCMV strain AD 169; [8]): 0
- Optic neuritis score (ONH) (HCMV strain AD 169; day 3, sham-inoculated S2-S5, dose as groups 2-5): 0
- Chorioretinal score (C) (HCMV strain AD 169; [9]): 0.5
- Vitreitis score (V) (HCMV strain AD 169; [9]): 4 and 4.25
- HCMV Recovered, OD (HCMV strain AD 169; [10]): +
- HCMV Recovered, OS (HCMV strain AD 169; [10]): -
- HCMV Titer, OD (HCMV strain AD 169; [10]): 10^1 pfu
- HCMV recovery frequency (HCMV strain AD 169; [10]): 1/2
- Chorioretinal score (C) (HCMV strain AD 169; [11]): 0
- Vitreitis score (V) (HCMV strain AD 169; [11]): 0
- Optic neuritis score (ONH) (HCMV strain AD 169; day 4, sham-inoculated S2-S5, dose as groups 2-5): 0
- Optic neuritis score (ONH) (HCMV strain AD 169; day 5, DHPG 10 or PALA 50 + DHPG 10 mg/kg/d): 4 and 5
- Chorioretinal score (C) (HCMV strain AD 169; [12]): 0.5
- Vitreitis score (V) (HCMV strain AD 169; [12]): 4.5 and 2.75
- HCMV Recovered, OD (HCMV strain AD 169; [13]): -
- HCMV Recovered, OS (HCMV strain AD 169; [13]): -
- HCMV recovery frequency (HCMV strain AD 169; [13]): 0/2
- Chorioretinal score (C) (HCMV strain AD 169; [14]): 0
- Vitreitis score (V) (HCMV strain AD 169; [14]): 0
- Optic neuritis score (ONH) (HCMV strain AD 169; day 5, sham-inoculated S2-S5, dose as groups 2-5): 0
- Vitreitis score (V) (HCMV strain AD 169; day 6, DHPG 10 or PALA 50 + DHPG 10 mg/kg/d, sum of both eyes): 3.5 and 2.5
- HCMV Recovered, OD (HCMV strain AD 169; [15]): +
- HCMV Recovered, OS (HCMV strain AD 169; [15]): -
- HCMV recovery frequency (HCMV strain AD 169; [15]): 1/2
- HCMV Titer, OD (HCMV strain AD 169; [16]): 10^1 pfu
- Chorioretinal score (C) (HCMV strain AD 169; [17]): 0
- Vitreitis score (V) (HCMV strain AD 169; [17]): 0
- Optic neuritis score (ONH) (HCMV strain AD 169; day 6, sham-inoculated S2-S5, dose as groups 2-5): 0
- Optic neuritis score (ONH) (HCMV strain AD 169; day 7, DHPG 10 or PALA 50 + DHPG 10 mg/kg/d): 3 and 6
- Chorioretinal score (C) (HCMV strain AD 169; [18]): 0
- Vitreitis score (V) (HCMV strain AD 169; [18]): 3.5 and 3
- Chorioretinal score (C) (HCMV strain AD 169; [19]): 0
- Vitreitis score (V) (HCMV strain AD 169; [19]): 0
- Optic neuritis score (ONH) (HCMV strain AD 169; day 7, sham-inoculated S2-S5, dose as groups 2-5): 0
- Optic neuritis score (ONH) (HCMV strain AD 169; day 10, DHPG 10 or PALA 50 + DHPG 10 mg/kg/d): 3
- Chorioretinal score (C) (HCMV strain AD 169; [20]): 0
- Vitreitis score (V) (HCMV strain AD 169; [20]): 1.75 and 1.25
- Chorioretinal score (C) (HCMV strain AD 169; [21]): 0
- Vitreitis score (V) (HCMV strain AD 169; [21]): 0
- Optic neuritis score (ONH) (HCMV strain AD 169; day 10, sham-inoculated S2-S5, dose as groups 2-5): 0

Structure (SMILES): O=C(O)C[C@H](NC(=O)CP(=O)(O)O)C(=O)O [PALA]
- TI (CMV; HFF): 32.0
- IC50 (CMV; Human betaherpesvirus 5, HFF): 10 µg/mL (≈ 39.2 µM)
- IC50 (Paramyxo-3; HEp-2): 10 µg/mL (≈ 39.2 µM)
- TI (Paramyxo-3; Hep-2): 32.0
- TI (HIV-1; CEM): ~ 5.0
- IC50 (HIV-1; Human immunodeficiency virus 1, CCRF-CEM): 12 µg/mL (≈ 47 µM)
- therapeutic index (RNA and DNA viruses): about 32
- inhibitory activity (herpes virus-2): no inhibitory activity
- inhibition at 0.5 µM ([1]; Duck hepatitis B virus, Hepatocyte): 95%
- toxicity ([1]; high concentrations): little or no toxicity
- IC50 (Sandfly fever virus): 14.9 µg/mL (≈ 58.4 µM)
- TI (TC50/IC50) (Sandfly fever virus; 50% inhibition): > 15.32 and > 21.54
- TI (TC50/IC50) [2]: > 18.59 and > 18.80
- TI (TC50/IC50) [3]: 0.00
- clinical efficacy in cancer [4]: relatively nonefficacious
- effect on humoral immune response (humoral immune response): does not appear to significantly alter humoral immune response
- CC50 (in vitro; uninfected vero cells): > 320 µg/mL
- CC50 (in vitro; vero cells): > 320 µg/mL
- IC50 (Punta toro virus): 15.2 µg/mL (≈ 59.6 µM)
- IC50 (Yellow fever virus): 16.6 µg/mL (≈ 65.1 µM)
- HCMV recovery (HCMV strain AD 169; [5]): better than recovery in placebo treated eyes
- HCMV Recovered, OD (HCMV strain AD 169; [7]): +
- HCMV Recovered, OS (HCMV strain AD 169; [7]): +
- HCMV Titer, OD (HCMV strain AD 169; [7]): 10^4 pfu
- HCMV Titer, OS (HCMV strain AD 169; [7]): 10^4 pfu
- HCMV recovery frequency (HCMV strain AD 169; [7]): 2/2
- Chorioretinal score (C) (HCMV strain AD 169; [8]): 0
- Vitreitis score (V) (HCMV strain AD 169; [8]): 0
- HCMV Recovered, OD (HCMV strain AD 169; [10]): +
- HCMV Recovered, OS (HCMV strain AD 169; [10]): +
- HCMV Titer, OD (HCMV strain AD 169; [10]): 10^3 pfu
- HCMV Titer, OS (HCMV strain AD 169; [10]): 10^2 pfu
- HCMV recovery frequency (HCMV strain AD 169; [10]): 2/2
- Chorioretinal score (C) (HCMV strain AD 169; [11]): 0
- Vitreitis score (V) (HCMV strain AD 169; [11]): 0
- HCMV Titer, OD (HCMV strain AD 169; day 5, PALA 50 mg/kg/d): 10^1 pfu
- HCMV Titer, OS (HCMV strain AD 169; day 5, PALA 50 mg/kg/d): 10^2 pfu
- HCMV Recovered, OD (HCMV strain AD 169; [13]): +
- HCMV Recovered, OS (HCMV strain AD 169; [13]): +
- HCMV recovery frequency (HCMV strain AD 169; [13]): 2/2
- Chorioretinal score (C) (HCMV strain AD 169; [14]): 0
- Vitreitis score (V) (HCMV strain AD 169; [14]): 0
- HCMV Titer, OS (HCMV strain AD 169; day 6, PALA 50 mg/kg/d): 10^1 pfu
- HCMV Recovered, OD (HCMV strain AD 169; [15]): +
- HCMV Recovered, OS (HCMV strain AD 169; [15]): +
- HCMV recovery frequency (HCMV strain AD 169; [15]): 2/2
- HCMV Titer, OD (HCMV strain AD 169; [16]): 10^1 pfu
- Chorioretinal score (C) (HCMV strain AD 169; [17]): 0
- Vitreitis score (V) (HCMV strain AD 169; [17]): 0
- Chorioretinal score (C) (HCMV strain AD 169; [19]): 0
- Vitreitis score (V) (HCMV strain AD 169; [19]): 0
- Chorioretinal score (C) (HCMV strain AD 169; [21]): 0
- Vitreitis score (V) (HCMV strain AD 169; [21]): 0
- vitreitis / chorioretinal disease (HCMV strain AD 169; sham-inoculated S1, PALA 50 mg/kg/day): did not develop any vitreitis nor chorioretinal disease
